Laboratory results as given in US20190064149A1, “CANCER EXAMINATION METHOD AND EXAMINATION KIT” (THE UNIVERSITY OF TOKYO, priority 2013, published 2019).

Target: T1, MT1-MMP (Homo sapiens, UniProt P50281)
T1 construct: expressed in transfected cells; host or cells: HT1080 (human fibrosarcoma) stably expressing c-myc-EphA2, transiently transfected with pSG-MT1-MMP
Assay: EphA2 processing by MT1-MMP in HT1080 cells forcibly expressing MT1-MMP and Myc-labeled EphA2, western blotting
Type: cell-based
Experimental: HT1080 cells expressing c-myc-EphA2 stably were prepared by a ViraPower™ lentiviral expression system using a plenti-c-myc-EphA2 vector in HT1080 and expression vectors (pSG-MT1-6-MMPs) of MT1-6-MMPs were transiently introduced into the resulting cells. EphA2 and MT1-MMP were detected by western blotting using an anti-Myc polyclonal antibody and an anti-MT1-MMP monoclonal antibody. Respective expression vectors of the MT-MMPs were introduced using FuGene6 (Rhoche). Expression of c-myc-EphA2 and wild type MT1-MMP was confirmed by solubilizing each of the cells (10 cm) by RIPA and then performing immunoprecipitation (IP) of EphA2 and stud thereof by an anti C-myc antibody. In order to inhibit the protease activity of MT1-MMP, BB94 or TIMP-2 was added as an MMP inhibitor to a culture solution.

EphA2 species purified by immunoprecipitation with Myc antibody (HT1080 cells co-expressing Myc-EphA2 and wild type MT1-MMP): only a full length type EphA2 | production of 65 and 60 kDa EphA2 processed fragments (HT1080 cells forcibly expressing MT1-MMP, inhibitor added to culture solution): suppressed
SMILES: CNC(=O)[C@H](Cc1ccccc1)NC(=O)[C@H](CC(C)C)[C@H](CSc1cccs1)C(=O)NO [BB94]
